Values after ≈ are worked out from the molar mass of the structure shown.
Each molecule was assayed on E. Coli 324 (assay: In vitro antibacterial activity by the two-fold agar-plate dilution method). Conditions: Escherichia coli, HI-agar, overnight culture 10^8 viable cells per ml., 37° C. for 20 hours, read-out: MIC (minimal inhibitory concentration).
Format: cell-based
Procedure: In vitro antibacterial activity was determined by the two-fold agar-plate dilution method as described below. One loopful of an overnight culture of each test strain in Trypticase-soy broth (10^8 viable cells per ml.) was streaked on heart infusion agar (HI-agar) containing graded concentrations of antibiotics, and the minimal inhibitory concentration (MIC) was expressed in terms of μg/ml. after incubation at 37° C. for 20 hours.

SMILES | MIC [µg/mL]
Cn1nnnc1SCC1=C(C(=O)O)N2C(=O)C(NC(=O)C(=O)c3csc(N)n3)C2SC1 (centres unmarked) [(1)] | 0.05 (≈ 0.104 µM)
Nc1nc(C(=O)C(=O)NC2C(=O)N3C(C(=O)O)=C(CSc4nncs4)CSC23)cs1 (centres unmarked) [(2)] | 0.05 (≈ 0.103 µM)
Cc1nnc(SCC2=C(C(=O)O)N3C(=O)C(NC(=O)C(=O)c4csc(N)n4)C3SC2)s1 (centres unmarked) [(3)] | 0.05 (≈ 0.1 µM)
Cc1nnc(SCC2=C(C(=O)O)N3C(=O)C(NC(=O)C(=O)c4csc(N)n4)C3SC2)o1 (centres unmarked) [(4)] | 0.05 (≈ 0.104 µM)
Cn1cnnc1SCC1=C(C(=O)O)N2C(=O)C(NC(=O)C(=O)c3csc(N)n3)C2SC1 (centres unmarked) [(5)] | 0.05 (≈ 0.104 µM)
